Reference: patent publication US20220363662A1, “COMPOUNDS AS LXR AGONISTS” (Integral Biosciences Privated Limited, priority 2021, published 2022)

Assays:
LXR alpha = target: T1, LXR alpha (Homo sapiens, UniProt Q13133); assay: LXR alpha agonist assay (Lanthascreen TR-FRET); format: biochemical; settings: LXR alpha-LBD 2.5 nM, read-out: LXR-α EC50
T1 construct: 5 μL of 4×LXR alpha-LBD was added to each well (final concentration 2.5 nM); purchased Thermofisher PV4655
T1 sequence (Q13133 209-447 limits assumed): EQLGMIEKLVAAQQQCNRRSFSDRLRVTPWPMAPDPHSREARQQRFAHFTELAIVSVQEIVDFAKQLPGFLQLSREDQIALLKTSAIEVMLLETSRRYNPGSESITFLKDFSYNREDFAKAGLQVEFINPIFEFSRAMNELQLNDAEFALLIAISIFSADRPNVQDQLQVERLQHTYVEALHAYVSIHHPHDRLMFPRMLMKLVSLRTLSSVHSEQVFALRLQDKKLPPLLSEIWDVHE
Method: EC50 values of compounds against LXR alpha were determined at Integral BioSciences (India) using Lanthascreen TR-FRET (Thermofisher, Cat #PV4655). Assay was performed in a 20 μL final volume in a Black 384-well plate (Corning, Cat #4511). Dose response curve for the compounds were prepared in duplicates with starting concentration at 30 μM and a three-fold titration was performed. The reaction buffer consisted of TR-FRET Coregulator Buffer H. To the compound dilution, 5 μL of 4×LXR alpha-LBD was added to each well (final concentration 2.5 nM). An equal volume (5 μL) containing 4×Fl-D22/Tb-anti GST antibody (final concentration 250 nM/10 nM) was added to initiate the enzyme reaction and the reaction was incubated for 60 min at 22° C. after which the plates were read using BioTek Plate reader for TR-FRET every hour up to 4 hours.
Analysis was done using the standard curve by non-linear regression, variable slope inhibitor curve fits (Graph-Pad Prism) and EC50's of compounds were determined wherever possible.

LXR beta = target: T2, LXR beta (Homo sapiens, UniProt P55055); assay: LXR beta agonist assay (Lanthascreen TR-FRET); format: biochemical; settings: LXR beta-LBD 5 nM, read-out: LXR-β EC50
T2 construct: 5 μL of 4×LXR beta-LBD was added to each well (final concentration 5 nM); purchased Thermofisher PV4658
T2 sequence (P55055 222-460 limits assumed): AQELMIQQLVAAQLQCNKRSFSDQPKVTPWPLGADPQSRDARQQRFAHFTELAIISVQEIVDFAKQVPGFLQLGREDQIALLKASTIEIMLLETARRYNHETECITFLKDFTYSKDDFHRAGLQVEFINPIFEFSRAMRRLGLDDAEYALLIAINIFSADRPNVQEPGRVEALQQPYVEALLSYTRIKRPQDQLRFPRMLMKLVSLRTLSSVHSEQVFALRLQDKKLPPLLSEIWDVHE
How it was run: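 TR-FRET coactivator recruitment: 5 nM LXR beta-LBD with 100 nM Fl-D22 peptide and 10 nM Tb-anti-GST antibody (final) in Coregulator Buffer G, 60 min at 22° C, read hourly up to 4 hours. Duplicate three-fold titrations from 30 μM; EC50 by variable-slope nonlinear regression.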

HepG2 = assay: Cell viability assay (resazurin) in HepG2; format: cell-based; settings: Homo sapiens, 96 hr exposure
Method: (§1) HepG2 (ATCC® HB-8065™), hepatocellular carcinoma, A549 (ATCC® CCL-185™), lung epithelial carcinoma, MCF7 (ATCC® HTB-22™), mammary gland epithelial carcinoma, MDA-MB-231 (ATCC® HTB-26™), TNBC, MiaPaCa-2 (ATCC® CRL-1420™) & Panc-1 (ATCC® CRL-1469™), pancreatic epithelial carcinoma, HCT116 (ATCC® CCL-247™), colon epithelial carcinoma and U87MG (ATCC® HTB-14™), brain epithelial carcinoma cell lines respectively were seeded in the respective medium (DMEM, Cat #10569044 with 10% FBS, Cat #16000044; Gibco for HepG2, A549, MCF7, MDA-MB-231, MiaPaCa-2, Panc-1, HCT116 and MEM, Cat #11095080 with 10% FBS for U87MG). Cells were allowed to grow at 37° C. for 24 hr in 5% CO2 (culture conditions) in a Nuaire incubator (humidified). Serially diluted compounds (100 μl) were added to the culture plate 24 hr later and the cultures were further incubated in culture conditions for 96 hr. Experiment was terminated at the completion of 96 hr exposure to the drug by replacing the medium with 100 μl of 1 mM of resazurin (R7017; Sigma) prepared in culture medium and the plates were further incubated in culture conditions for 4 hr. Fluorescence was then measured using a multimodal plate reader (Biotek Synergy Neo) at an excitation wavelength of 535 nm and emission wavelength of 590 nm to obtain relative fluorescence units. Data analysis was done by subtracting the background fluorescence (only medium blank) value from each reading and then normalizing with the vehicle control (DMSO treated cells) to obtain percent survival/proliferation. Percent survival at different doses was used to calculate IC50 by fitting the curve to the “four-parameter variable slope logistic model” using Prism Graph Pad.

HCT116 = assay: Cell viability assay (resazurin) in HCT116; format: cell-based; settings: Homo sapiens, HCT-116; 96 hr exposure
Method: as §1

MDA-MB-231 = assay: Cell viability assay (resazurin) in MDA-MB-231; format: cell-based; settings: Homo sapiens, 96 hr exposure, read-out: MDA_MB-231 Cell IC50
Method: as §1

THP1 = assay: Cell viability assay in THP1; format: cell-based; settings: Homo sapiens, THP-1
A549 = assay: Cell viability assay (resazurin) in A549; format: cell-based; settings: Homo sapiens, 96 hr exposure
Method: as §1

Structure (SMILES) | EC50 (LXR alpha) [µM] | EC50 (LXR beta) [µM] | IC50 (HepG2) [µM] | IC50 (HCT116) [µM] | IC50 (MDA-MB-231) [µM] | IC50 (THP1) [µM] | IC50 (A549) [µM]
CN(C)C(=O)c1ccc(N2CCN(C3CC4(C3)CN(C(=O)[C@@](O)(c3ccccc3)C(F)(F)F)C4)CC2)cc1Cl (single isomer, unassigned) [Compound 1.18] | 5.96 | 1.58 | – | – | – | – | –
CC(C)[C@@](O)(C(=O)N1CCC2(CC1)CN(C1CCN(c3ccc(C(=O)N(C)C)c(Cl)c3)CC1)C2)C(F)(F)F (single isomer, unassigned) [Compound 1.73] | – | 1.41 | > 30 | – | – | – | –
CN(C)C(=O)c1ccc(-c2cncc(C3=CCN(S(=O)(=O)c4ccccc4Cl)CC3)c2)cc1Cl [Compound 1.39, 2-chloro-4-(5-(1-(2-chlorophenylsulfonyl)-1,2,3,6-tetrahydropyridin-4-yl)pyridin-3-yl)-N,N-dimethylbenzamide] | – | – | – | > 30 | > 30 | > 30 | > 30
CC(C)C(O)(C(=O)N1CCC(N2CC[C@H](Nc3ccc(C(=O)N(C)C)c(Cl)c3)C2)CC1)C(F)(F)F (stereo partly drawn) [Compound 1.40, 2-chloro-4-((3S)-1-(1-(2-hydroxy-3-methyl-2-(trifluoromethyl)butanoyl)piperidin-4-yl)pyrrolidin-3-ylamino)-N,N-dimethylbenzamide] | – | 23.6 | – | > 30 | > 30 | > 30 | > 30
CN(C)C(=O)c1ccc(NC2CN(C3CCN(C(=O)C(C)(C)c4ccccc4)CC3)C2)cc1Cl [Compound 1.41, 2-chloro-N,N-dimethyl-4-(1-(1-(2-methyl-2-phenylpropanoyl)piperidin-4-yl)azetidin-3-ylamino)benzamide] | – | 5.75 | – | > 30 | > 30 | > 30 | > 30
CN(C)C(=O)c1ccc(NC2CN(C3CCN(C(=O)C4(c5cccc(F)c5)CCC4)CC3)C2)cc1Cl [Compound 1.42, 2-chloro-4-(1-(1-(1-(3-fluorophenyl)cyclobutanecarbonyl)piperidin-4-yl)azetidin-3-ylamino)-N,N-dimethylbenzamide] | – | 3.09 | – | 15.1 | 16.1 | > 30 | > 30
CC(C)C(O)(C(=O)N1CCC(N2CC(Nc3ccc(C(=O)N(C)C)c(Cl)c3)C2)CC1)C(F)(F)F (centres unmarked) [Compound 1.43, 2-chloro-4-(1-(1-(2-hydroxy-3-methyl-2-(trifluoromethyl)butanoyl)piperidin-4-yl)azetidin-3-ylamino)-N,N-dimethylbenzamide] | – | 4.68 | – | > 30 | > 30 | > 30 | > 30
CN(C)C(=O)c1ccc(N[C@H]2CCN(C3CCN(C(=O)[C@](O)(c4ccccc4)C(F)(F)F)CC3)C2)cc1Cl [Compound 1.46, 2-chloro-N,N-dimethyl-4-((S)-1-(1-((R)-3,3,3-trifluoro-2-hydroxy-2-phenylpropanoyl)piperidin-4-yl)pyrrolidin-3-ylamino)benzamide] | – | > 30 | – | > 30 | > 30 | > 30 | > 30
CN(C)C(=O)c1ccc(NC2CCN(C3CCN(C(=O)[C@](O)(c4ccccc4)C(F)(F)F)CC3)CC2)cc1Cl [Compound 1.47, (R)-2-chloro-N,N-dimethyl-4-(1′-(3,3,3-trifluoro-2-hydroxy-2-phenylpropanoyl)-1,4′-bipiperidin-4-ylamino)benzamide] | – | 2.91 | – | > 30 | > 30 | > 30 | > 30
CN(C)C(=O)c1ccc(NC2CN(C3CCN(C(=O)C4(c5ccccc5)CCC4)CC3)C2)cc1Cl [Compound 1.48, 2-chloro-N,N-dimethyl-4-(1-(1-(1-phenylcyclobutanecarbonyl)piperidin-4-yl)azetidin-3-ylamino)benzamide] | – | – | – | 12.2 | > 30 | > 30 | 19.8
CN(C)C(=O)c1ccc(NC2CN(C3CCN(C(=O)C4(c5ccc(F)cc5)CCC4)CC3)C2)cc1Cl [Compound 1.49, 2-chloro-4-(1-(1-(1-(4-fluorophenyl)cyclobutanecarbonyl)piperidin-4-yl)azetidin-3-ylamino)-N,N-dimethylbenzamide] | – | 15.9 | – | 17.8 | 15 | > 30 | 15.1
CN(C)C(=O)c1ccc(N[C@@H]2CCCN(C3CCN(C(=O)[C@](O)(c4ccccc4)C(F)(F)F)CC3)C2)cc1Cl [Compound 1.71, 2-chloro-N,N-dimethyl-4-((R)-1′-((R)-3,3,3-trifluoro-2-hydroxy-2-phenylpropanoyl)-1,4′-bipiperidin-3-ylamino)benzamide] | – | 1.18 | > 29.4 | – | – | – | –
CN(C)C(=O)c1ccc(O[C@@H]2CCN(C3CCN(C(=O)[C@](O)(c4ccccc4)C(F)(F)F)CC3)C2)cc1Cl [Compound 1.72, 2-chloro-N,N-dimethyl-4-((R)-1-(1-((R)-3,3,3-trifluoro-2-hydroxy-2-phenylpropanoyl)piperidin-4-yl)pyrrolidin-3-yloxy)benzamide] | – | 5.37 | > 30 | – | – | – | –
CN(C)C(=O)c1ccc(N2CC3(CCN(C4CCN(C(=O)[C@](O)(c5ccccc5)C(F)(F)F)CC4)CC3)C2)cc1Cl [Compound 1.75, 2-chloro-N,N-dimethyl-4-(7-(1-((R)-3,3,3-trifluoro-2-hydroxy-2-phenylpropanoyl)piperidin-4-yl)-2,7-diazaspiro[3.5]nonan-2-yl)benzamide] | – | > 30 | > 30 | – | – | – | –
CN(C)C(=O)c1ccc(O[C@H]2CCN(C3CCN(C(=O)[C@](O)(c4ccccc4)C(F)(F)F)CC3)C2)cc1Cl [Compound 1.76, 2-chloro-N,N-dimethyl-4-((S)-1-(1-((R)-3,3,3-trifluoro-2-hydroxy-2-phenylpropanoyl)piperidin-4-yl)pyrrolidin-3-yloxy)benzamide] | – | > 29.8 | > 30 | – | – | – | –
CC(C)C(O)(C(=O)N1CCC(N2CCC3(CC2)CN(c2ccc(C(=O)N(C)C)c(Cl)c2)C3)CC1)C(F)(F)F (centres unmarked) [Compound 1.78, 2-chloro-4-(7-(1-(2-hydroxy-3-methyl-2-(trifluoromethyl)butanoyl)piperidin-4-yl)-2,7-diazaspiro[3.5]nonan-2-yl)-N,N-dimethylbenzamide] | – | > 30 | > 30 | – | – | – | –
CN(C)C(=O)c1ccc(N2CCC(N3CC4(CCN(C(=O)[C@](O)(c5ccccc5)C(F)(F)F)CC4)C3)CC2)cc1Cl [Compound 1.79, 2-chloro-N,N-dimethyl-4-(4-(7-((R)-3,3,3-trifluoro-2-hydroxy-2-phenylpropanoyl)-2,7-diazaspiro[3.5]nonan-2-yl)piperidin-1-yl)benzamide] | – | 4.3 | 26.6 | – | – | – | –
